Here are results for 31 compounds from patent publication US12441703B2, “Carboxamides as modulators of sodium channels” (VERTEX PHARMACEUTICALS INCORPORATED, priority 2019, dated 2025).

In the experiment the target is human NaV 1.8 (Homo sapiens, UniProt Q9Y5Y9). The experiment in a line: E-VIPR assay for detecting and measuring NaV inhibition properties. It is filed as cell-based. The note with it: E-VIPR assay conducted in the presence of human serum; HEK cells expressing truncated human NaV 1.8; read-out: IC50. The procedure, abridged:
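HEK cells with truncated human NaV1.8 plus KIR2.1 BacMam, hexyl dye loaded 20 min, compound 30 min at room temperature, 11-point 3-fold series […], 0.625% DMSO, with or without human serum. E-VIPR biphasic stimulation at 10 Hz for 10 s; membrane-potential response read as normalized coumarin/oxonol ratio.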

Molecules are shown by their SMILES.

Chain of human NaV 1.8 (Q9Y5Y9 whole entry, looked up, the tested form may be a part): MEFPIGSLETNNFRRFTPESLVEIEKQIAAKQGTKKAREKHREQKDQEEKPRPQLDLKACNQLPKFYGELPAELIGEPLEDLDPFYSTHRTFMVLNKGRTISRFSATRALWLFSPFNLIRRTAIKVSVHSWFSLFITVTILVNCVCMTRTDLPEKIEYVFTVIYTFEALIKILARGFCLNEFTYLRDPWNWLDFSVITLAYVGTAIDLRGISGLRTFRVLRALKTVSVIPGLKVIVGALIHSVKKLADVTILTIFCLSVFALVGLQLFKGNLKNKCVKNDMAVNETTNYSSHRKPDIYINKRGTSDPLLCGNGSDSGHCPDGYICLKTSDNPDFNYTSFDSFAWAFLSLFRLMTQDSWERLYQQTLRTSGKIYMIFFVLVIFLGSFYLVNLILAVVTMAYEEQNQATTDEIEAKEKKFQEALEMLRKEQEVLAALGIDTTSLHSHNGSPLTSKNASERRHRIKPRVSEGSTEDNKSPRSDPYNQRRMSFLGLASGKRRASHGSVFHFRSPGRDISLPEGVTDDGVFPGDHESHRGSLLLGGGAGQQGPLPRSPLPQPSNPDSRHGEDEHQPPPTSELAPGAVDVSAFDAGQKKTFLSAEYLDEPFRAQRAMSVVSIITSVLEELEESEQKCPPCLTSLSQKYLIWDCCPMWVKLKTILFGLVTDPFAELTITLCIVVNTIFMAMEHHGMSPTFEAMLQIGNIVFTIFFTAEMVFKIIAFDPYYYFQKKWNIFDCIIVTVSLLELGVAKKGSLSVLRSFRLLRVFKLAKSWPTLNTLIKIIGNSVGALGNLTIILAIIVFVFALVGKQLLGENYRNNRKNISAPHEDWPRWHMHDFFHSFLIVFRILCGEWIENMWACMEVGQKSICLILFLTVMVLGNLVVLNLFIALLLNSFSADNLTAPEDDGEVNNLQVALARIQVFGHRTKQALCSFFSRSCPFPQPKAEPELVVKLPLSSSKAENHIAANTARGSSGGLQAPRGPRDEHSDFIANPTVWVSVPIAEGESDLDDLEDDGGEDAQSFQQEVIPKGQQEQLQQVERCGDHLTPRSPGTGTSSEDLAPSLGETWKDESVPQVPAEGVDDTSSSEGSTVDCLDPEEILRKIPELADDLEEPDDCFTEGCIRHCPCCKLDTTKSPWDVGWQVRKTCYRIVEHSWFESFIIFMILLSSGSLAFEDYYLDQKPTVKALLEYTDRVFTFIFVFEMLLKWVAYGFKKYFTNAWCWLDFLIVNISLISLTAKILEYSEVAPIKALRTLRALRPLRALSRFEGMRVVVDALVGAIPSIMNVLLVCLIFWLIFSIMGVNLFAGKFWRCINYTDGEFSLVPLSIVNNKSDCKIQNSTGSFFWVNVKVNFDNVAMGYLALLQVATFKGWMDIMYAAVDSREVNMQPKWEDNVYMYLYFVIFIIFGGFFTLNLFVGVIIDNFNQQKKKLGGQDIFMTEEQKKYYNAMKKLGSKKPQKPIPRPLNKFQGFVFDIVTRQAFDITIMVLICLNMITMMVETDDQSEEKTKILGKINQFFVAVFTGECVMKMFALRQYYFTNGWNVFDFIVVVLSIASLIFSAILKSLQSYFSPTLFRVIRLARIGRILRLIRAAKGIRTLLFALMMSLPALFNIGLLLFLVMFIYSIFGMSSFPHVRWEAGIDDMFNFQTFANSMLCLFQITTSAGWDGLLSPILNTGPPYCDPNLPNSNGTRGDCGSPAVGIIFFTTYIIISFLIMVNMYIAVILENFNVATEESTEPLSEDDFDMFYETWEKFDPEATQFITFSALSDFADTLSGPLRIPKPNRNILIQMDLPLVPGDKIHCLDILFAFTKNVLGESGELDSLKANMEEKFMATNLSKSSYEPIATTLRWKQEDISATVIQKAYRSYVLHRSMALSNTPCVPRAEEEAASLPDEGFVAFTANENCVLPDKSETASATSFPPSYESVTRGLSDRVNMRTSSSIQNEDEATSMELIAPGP

In general, IC50 refers to the midpoint of a concentration-inhibition curve. Turning to `COc1c(Oc2cc(Cl)c(C)c(F)c2C(=O)Nc2ccnc(C(N)=O)c2)ccc(OC(F)(F)F)c1F` [Compound 309, 4-[[4-chloro-2-fluoro-6-[3-fluoro-2-methoxy-4-(trifluoromethoxy)phenoxy]-3-methyl-benzoyl]amino]pyridine-2-carboxamide], the concentration for half-maximal inhibition (IC50) came out at 1.4 nM.
Take `NC(=O)c1ccc(NC(=O)c2c(Oc3ccc(OC(F)(F)F)c(Cl)c3)ccc(C(F)(F)F)c2F)cn1` [Compound 217, 5-[[6-[3-chloro-4-(trifluoromethoxy)phenoxy]-2-fluoro-3-(trifluoromethyl)benzoyl]amino]pyridine-2-carboxamide]: the IC50 turned out to be 160 nM.
As to `COc1cc(OC(F)(F)F)ccc1Oc1cc(C(F)(F)F)c(F)cc1C(=O)Nc1cc[n+]([O-])c(C(N)=O)c1` [Compound 279, 4-[[5-Fluoro-2-[2-Methoxy-4-(Trifluoromethoxy)Phenoxy]-4-(Trifluoromethyl)Benzoyl]Amino]-1-Oxido-Pyridin-1-Ium-2-Carboxamide], the IC50 amounted to 19 nM.
With `Cc1cnc(C(N)=O)cc1NC(=O)c1c(Oc2ccc(OC(F)(F)F)c(F)c2Cl)ccc(C(F)(F)F)c1F` [Compound 296, 4-[[6-[2-Chloro-3-Fluoro-4-(Trifluoromethoxy)Phenoxy]-2-Fluoro-3-(Trifluoromethyl)Benzoyl]Amino]-5-Methyl-Pyridine-2-Carboxamide], the IC50 amounted to 24.6 nM.
In the case of `COc1c(C(F)(F)F)ccc(Oc2ccc(OC3CCCCC3)cc2)c1C(=O)Nc1ccnc(C(N)=O)c1` [Compound 60, 4-[[6-[4-(cyclohexoxy)phenoxy]-2-methoxy-3-(trifluoromethyl)benzoyl]amino]pyridine-2-carboxamide], the IC50 was found to be 520 nM.
Take `COc1cc(OC(F)(F)F)ccc1Oc1ccc(C(F)(F)F)c(OCCC2CC2)c1C(=O)Nc1ccnc(C(N)=O)c1` [Compound 1028]: the half-maximal inhibitory concentration (IC50) was determined as 590 nM.
On to `COc1cc(OC(F)(F)F)ccc1Oc1cc(C(F)(F)F)cc(C)c1C(=O)Nc1ccnc(C(N)=O)c1` [Compound 188, 4-[[2-[2-methoxy-4-(trifluoromethoxy)phenoxy]-6-methyl-4-(trifluoromethyl)benzoyl]amino]pyridine-2-carboxamide], for which the IC50 came to 24 nM.
As for `COc1cc(Cl)ccc1Oc1ccc(C(F)(F)F)c(F)c1C(=O)Nc1ccnc(C(N)=O)c1` [Compound 43, 4-[[6-(4-chloro-2-methoxy-phenoxy)-2-fluoro-3-(trifluoromethyl)benzoyl]amino]pyridine-2-carboxamide], the figure is 13 nM; as for `COc1c(Oc2ccc(C(F)(F)F)c(C)c2C(=O)Nc2ccc(C(N)=O)nn2)ccc(OC(F)(F)F)c1F` [Compound 317, 6-[[6-[3-fluoro-2-methoxy-4-(trifluoromethoxy)phenoxy]-2-methyl-3-(trifluoromethyl)benzoyl]amino]pyridazine-3-carboxamide], 520 nM; as for `CCc1c(C(F)(F)F)ccc(Oc2ccc(OC(F)(F)F)cc2OC)c1C(=O)Nc1ccc(C(N)=O)nc1` [Compound 184], 140 nM.
In the case of `Cc1c(C2CC2)ccc(Oc2ccc(OC(F)(F)F)cc2Cl)c1C(=O)Nc1ccnc(C(N)=O)c1` [Compound 199, 4-[[6-[2-chloro-4-(trifluoromethoxy)phenoxy]-3-cyclopropyl-2-methyl-benzoyl]amino]pyridine-2-carboxamide], the IC50 was 21 nM.
For the compound `[2H]C([2H])([2H])Oc1cc(OC(F)(F)F)ccc1Oc1cc(-c2ccc(C(F)(F)F)cc2)cc(F)c1C(=O)Nc1ccnc(C(N)=O)c1` [Compound 93, 4-[[2-fluoro-6-[2-(trideuteriomethoxy)-4-(trifluoromethoxy)phenoxy]-4-[4-(trifluoromethyl)phenyl]benzoyl]amino]pyridine-2-carboxamide], the 50% inhibitory concentration (IC50) came out at 13 nM.
As for `CC(C)Oc1ccc(Oc2ccc(C(F)(F)F)c(F)c2C(=O)Nc2ccnc(C(N)=O)c2)c(F)c1F` [Compound 18, 4-[[6-(2,3-difluoro-4-isopropoxy-phenoxy)-2-fluoro-3-(trifluoromethyl)benzoyl]amino]pyridine-2-carboxamide], the figure is 19 nM; as for `COc1cc(Oc2ccc(C(F)(F)F)c(OC)c2C(=O)Nc2ccnc(C(N)=O)c2)ccc1F` [Compound 69, 4-[[6-(4-fluoro-3-methoxy-phenoxy)-2-methoxy-3-(trifluoromethyl)benzoyl]amino]pyridine-2-carboxamide], above 3000 nM; as for `COc1cc(F)ccc1Oc1ccc(C(F)(F)F)c(F)c1C(=O)Nc1ccc(C(N)=O)nc1` [Compound 104, 5-[[2-fluoro-6-(4-fluoro-2-methoxy-phenoxy)-3-(trifluoromethyl)benzoyl]amino]pyridine-2-carboxamide], 380 nM.
Regarding `COc1c(Oc2ccc(F)c(F)c2C(=O)Nc2cc(C(N)=O)ncc2C)ccc(OC(F)(F)F)c1F` [Compound 304, 4-[[2,3-difluoro-6-[3-fluoro-2-methoxy-4-(trifluoromethoxy)phenoxy]benzoyl]amino]-5-methyl-pyridine-2-carboxamide], the IC50 was found to be 54 nM.
In the case of `NC(=O)c1ccc(NC(=O)c2c(Oc3ccc(Cl)cc3F)ccc(C(F)(F)F)c2F)cn1` [Compound 219, 5-[[6-(4-chloro-2-fluoro-phenoxy)-2-fluoro-3-(trifluoromethyl)benzoyl]amino]pyridine-2-carboxamide], the IC50 worked out at 1500 nM.
For the compound `Cc1c(Oc2ccc(C(F)(F)F)c(F)c2C(=O)Nc2ccnc(C(N)=O)c2)ccc(F)c1Cl` [Compound 338, 4-[[6-(3-chloro-4-fluoro-2-methyl-phenoxy)-2-fluoro-3-(trifluoromethyl)benzoyl]amino]pyridine-2-carboxamide], the IC50 worked out at 47 nM.
For `Cc1cc(F)ccc1Oc1ccc(C(F)(F)F)c(F)c1C(=O)Nc1ccnc(C(N)=O)c1` [Compound 102, 4-[[2-fluoro-6-(4-fluoro-2-methyl-phenoxy)-3-(trifluoromethyl)benzoyl]amino]pyridine-2-carboxamide], the half-maximal inhibitory concentration (IC50) came out at 36 nM.
For the compound `Cc1cc(Oc2ccc(C(F)(F)F)c(F)c2C(=O)Nc2ccnc(C(N)=O)c2)ccc1F` [Compound 32, 4-[[2-fluoro-6-(4-fluoro-3-methyl-phenoxy)-3-(trifluoromethyl)benzoyl]amino]pyridine-2-carboxamide], the concentration for half-maximal inhibition (IC50) is 200 nM.
For `Cc1c(C(F)(F)F)ccc(Oc2ccc(Cl)cc2F)c1C(=O)Nc1ccc(C(N)=O)nc1` [Compound 234, 5-[[6-(4-chloro-2-fluoro-phenoxy)-2-methyl-3-(trifluoromethyl)benzoyl]amino]pyridine-2-carboxamide], the half-maximal inhibitory concentration (IC50) was above 3000 nM.
In the case of `COc1cc(OC(F)(F)F)ccc1Oc1cc(OC)c(F)c(F)c1C(=O)Nc1ccnc(C(N)=O)c1` [Compound 263, 4-[[2,3-difluoro-4-methoxy-6-[2-methoxy-4-(trifluoromethoxy)phenoxy]benzoyl]amino]pyridine-2-carboxamide], the IC50 was determined as 20 nM.
In the case of `NC(=O)c1cc(NC(=O)c2cc(C(F)(F)F)ccc2Oc2ccc(F)c(F)c2)ccn1` [Compound 6, 4-[[2-(3,4-difluorophenoxy)-5-(trifluoromethyl)benzoyl]amino]pyridine-2-carboxamide], the IC50 worked out at 1700 nM.
For the compound `COc1c(C(F)(F)F)ccc(Oc2ccc(OC(F)(F)F)cc2Cl)c1C(=O)Nc1ccnc(C(N)=O)c1` [Compound 66, 4-[[6-[2-chloro-4-(trifluoromethoxy)phenoxy]-2-methoxy-3-(trifluoromethyl)benzoyl]amino]pyridine-2-carboxamide], the IC50 worked out at 16 nM.
On to `[2H]C([2H])([2H])Oc1cc(OC(F)(F)F)ccc1Oc1cc(C2CCOC2)cc(F)c1C(=O)Nc1ccnc(C(N)=O)c1` (stereo not shown) [Compound 1018, 4-[[2-fluoro-4-tetrahydrofuran-3-yl-6-[2-(trideuteriomethoxy)-4-(trifluoromethoxy)phenoxy]benzoyl]amino]pyridine-2-carboxamide], for which the IC50 was determined as 130 nM.
In the case of `COc1cc(C(F)(F)C(F)(F)F)ccc1Oc1ccc(C(F)(F)F)c(F)c1C(=O)Nc1ccc(C(N)=O)nc1` [Compound 210, 5-[[2-fluoro-6-[2-methoxy-4-(1,1,2,2,2-pentafluoroethyl)phenoxy]-3-(trifluoromethyl)benzoyl]amino]pyridine-2-carboxamide], the 50% inhibitory concentration (IC50) came to 280 nM.
For the compound `Cc1c(C(F)(F)F)ccc(Oc2ccc(F)c(F)c2F)c1C(=O)Nc1ccnc(C(N)=O)c1` [Compound 140, 4-[[2-methyl-3-(trifluoromethyl)-6-(2,3,4-trifluorophenoxy)benzoyl]amino]pyridine-2-carboxamide], the half-maximal inhibitory concentration (IC50) came to 68 nM.
`COc1c(Oc2cc(C(F)(F)F)c(C)c(F)c2C(=O)Nc2ccnc(C(N)=O)c2)ccc(OC(F)(F)F)c1F` [Compound 323, 4-[[2-fluoro-6-[3-fluoro-2-methoxy-4-(trifluoromethoxy)phenoxy]-3-methyl-4-(trifluoromethyl)benzoyl]amino]pyridine-2-carboxamide]: the 50% inhibitory concentration (IC50) stood at 0.8 nM.
For `CC(C)Oc1ccc(Oc2ccc(C(F)(F)F)cc2C(=O)Nc2ccnc(C(N)=O)c2)cc1Cl` [Compound 2, 4-[[2-(3-chloro-4-isopropoxy-phenoxy)-5-(trifluoromethyl)benzoyl]amino]pyridine-2-carboxamide], the IC50 turned out to be 450 nM.
As for `[2H]C([2H])([2H])Oc1cc(OC(F)(F)F)ccc1Oc1ccc2c(c1C(=O)Nc1ccc(C(N)=O)nc1)OC(F)(F)O2` [Compound 115], the IC50 is above 3000 nM.
For `[2H]C([2H])([2H])Oc1cc(OC(F)(F)F)ccc1Oc1cc(-c2ccccc2C(N)=O)cc(F)c1C(=O)Nc1ccnc(C(N)=O)c1` [Compound 1006, 4-[[4-(2-carbamoylphenyl)-2-fluoro-6-[2-(trideuteriomethoxy)-4-(trifluoromethoxy)phenoxy]benzoyl]amino]pyridine-2-carboxamide], the 50% inhibitory concentration (IC50) is above 3000 nM.
